Measured values from ChEMBL document CHEMBL1201862, “PubChem BioAssay data set” (2004).
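96-well plates; 48 h exposure; 5 concentrations. Endpoints by linear interpolation between flanking doses. Not reached: highest tested concentration assigned. GI50 is the concentration that inhibits growth by half.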 Activity calls are given as the source filed them. Cut-off read from the data, not from the text of the source: active = GI50 up to about 1.1 µM and inactive = higher.

Experiments:
Test in all cases: NCI anticancer screen, dose series, 48 h
[1] = test system: NCI-H23
[2] = test system: 786-0
[3] = test system: MOLT-4
[4] = test system: HOP-62
[5] = test system: NCI-H522
[6] = test system: Malme-3M
[7] = test system: Hs-578T
[8] = test system: SNB-75
[9] = test system: MDA-MB-231
[10] = test system: BT-549
[11] = test system: U-251
[12] = test system: SNB-19
[13] = test system: UO-31
[14] = test system: TK-10
[15] = test system: HT-29
[16] = test system: MCF7
[17] = test system: KM12
[18] = test system: SK-MEL-5
[19] = test system: HL-60
[20] = test system: SK-OV-3

Row | Structure (SMILES) | GI50 [1] | GI50 [2] | GI50 [3] | GI50 [4] | GI50 [5] | GI50 [6] | GI50 [7] | GI50 [8] | GI50 [9] | GI50 [10] | GI50 [11] | GI50 [12] | GI50 [13] | GI50 [14] | GI50 [15] | GI50 [16] | GI50 [17] | GI50 [18] | GI50 [19] | GI50 [20]
1 | O=C(NCCc1ccccc1)c1c(O)nc2ccccc2c1O | > 100 µM (inactive) | > 100 µM (inactive) | > 100 µM (inactive) | > 100 µM (inactive) | > 100 µM (inactive) | > 100 µM (inactive) | > 100 µM (inactive) | > 100 µM (inactive) | > 100 µM (inactive) | > 100 µM (inactive) | > 100 µM (inactive) | > 100 µM (inactive) | > 100 µM (inactive) | > 100 µM (inactive) | > 100 µM (inactive) | > 100 µM (inactive) | > 100 µM (inactive) | > 100 µM (inactive) | > 100 µM (inactive) | –
2 | O=C(NNC(=S)Nc1ccccc1)c1cc(-c2ccccc2)nc2ccccc12 | 16.3 µM (inactive) | 15.8 µM (inactive) | 11.4 µM (inactive) | 15.7 µM (inactive) | 18.1 µM (inactive) | 23.3 µM (inactive) | 25.1 µM (inactive) | 17.3 µM (inactive) | 20.1 µM (inactive) | 21.6 µM (inactive) | 12.2 µM (inactive) | 22.8 µM (inactive) | 15.2 µM (inactive) | 22 µM (inactive) | 28.6 µM (inactive) | 21.4 µM (inactive) | 20.7 µM (inactive) | 13.2 µM (inactive) | – | 26.8 µM (inactive)
3 | CC(C)[S+]1C2=C(CC(C)(C)CC2=O)[N-]c2ccccc21 (configuration not stated) | > 100 µM (inactive) | > 100 µM (inactive) | > 100 µM (inactive) | > 100 µM (inactive) | > 100 µM (inactive) | > 100 µM (inactive) | > 100 µM (inactive) | > 100 µM (inactive) | > 100 µM (inactive) | > 100 µM (inactive) | > 100 µM (inactive) | > 100 µM (inactive) | > 100 µM (inactive) | > 100 µM (inactive) | > 100 µM (inactive) | > 100 µM (inactive) | > 100 µM (inactive) | > 100 µM (inactive) | – | > 100 µM (inactive)
4 | COc1ccc(C2SC(=N)Nc3c2c(C)nn3C(=O)c2ccccc2O)cc1 (configuration not stated) | 0.933 µM (active) | 1.31 µM (inactive) | 1.81 µM (inactive) | 2.77 µM (inactive) | 3.85 µM (inactive) | 0.659 µM (active) | 0.49 µM (active) | 0.308 µM (active) | 0.986 µM (active) | 1.16 µM (inactive) | 0.9 µM (active) | > 10 µM (inactive) | – | – | 5.11 µM (inactive) | 1.61 µM (inactive) | 2.89 µM (inactive) | 2.59 µM (inactive) | 2.58 µM (inactive) | 5.32 µM (inactive)
5 | CC1=C(C)C(=O)OC(C(C)(O)C2(O)CCC3(O)C4CC(Cl)C5(O)C(O)C=CC(=O)C5(C)C4CCC32C)C1 (configuration not stated) | 64.7 µM (inactive) | 32.3 µM (inactive) | 10.1 µM (inactive) | > 100 µM (inactive) | 10.8 µM (inactive) | > 100 µM (inactive) | 66.4 µM (inactive) | 4.25 µM (inactive) | 30.2 µM (inactive) | 46.3 µM (inactive) | 37.5 µM (inactive) | 49.8 µM (inactive) | 15.6 µM (inactive) | 34.3 µM (inactive) | 15.9 µM (inactive) | 8.85 µM (inactive) | 25.6 µM (inactive) | – | 4.15 µM (inactive) | 41.6 µM (inactive)
6 | Oc1ccc(Br)cc1/C=N/C1CCCCC1 | 34.4 µM (inactive) | 22.9 µM (inactive) | 18.8 µM (inactive) | 45.4 µM (inactive) | 55.3 µM (inactive) | 27.6 µM (inactive) | 37.7 µM (inactive) | – | 36.3 µM (inactive) | 35.3 µM (inactive) | 12.4 µM (inactive) | 53 µM (inactive) | 33.8 µM (inactive) | > 100 µM (inactive) | 42.3 µM (inactive) | 14.6 µM (inactive) | 29.8 µM (inactive) | 19.2 µM (inactive) | 4.81 µM (inactive) | 55.3 µM (inactive)
7 | CN(C)CCNc1ccc(NCC[N+](C)(C)Cc2ccc([N+](=O)[O-])cc2)c2c1C(=O)c1ccccc1C2=O | 20.2 µM (inactive) | 16.2 µM (inactive) | 9.04 µM (inactive) | 19.8 µM (inactive) | 8.73 µM (inactive) | 22.6 µM (inactive) | 19.3 µM (inactive) | > 25 µM (inactive) | 4.86 µM (inactive) | > 25 µM (inactive) | 19.4 µM (inactive) | – | 9.51 µM (inactive) | > 25 µM (inactive) | 16.6 µM (inactive) | 11.9 µM (inactive) | 13.8 µM (inactive) | 12.2 µM (inactive) | 4.28 µM (inactive) | > 25 µM (inactive)
